Measurements taken from ChEMBL document CHEMBL1125758, “(Acyloxy)alkyl carbamate prodrugs of norfloxacin” (J Med Chem, 1991).
≈ marks a conversion by molar mass, not a printed value. Values belong to the compound of their own block, whether it stands above or below them.

Columns and labels:
Enterobacter cloacae [1] = assay: Antibacterial activity against Ent. cloacae P99- (2647); type: functional
[2] = Solubility in citrate buffer (0.1 M) at 25 degree centigrade(pH 5); type: physicochemical; conditions: for solubility: citrate buffer, read-out: S
[3] = Solubility in phosphate buffer (0.1 M) at 25 degree centigrade(pH 7.4); type: physicochemical
Monkey = assay: % dose recovered in urine; type: functional, Cercopithecidae
Proteus mirabilis [4] = assay: Antibacterial activity against Prot. mirabilis GmR (2830); type: functional
Serratia marcescens = assay: Antibacterial activity against Ser. marcescens (2840); type: functional
Pseudomonas aeruginosa [5] = assay: Antibacterial activity against Ps. aeruginosa (4279); type: functional
[6] = (§1) Urine conc 0-5 hours following 25 mg/kg dose; type: ADME, organism-based, Macaca mulatta; set-up: dose 25 mg/kg; conditions: rhesus monkey, in vivo
Escherichia coli [7] = assay: Antibacterial activity against Escherichia coli (2891); type: functional
[8] = Urine conc 0-24 hours following 25 mg/kg dose; type: ADME, organism-based, Macaca mulatta; set-up: dose 25 mg/kg; conditions: rhesus monkey, in vivo
Escherichia coli [9] = assay: Antibacterial activity against Escherichia coli TEM 2+ (4351); type: functional
Enterobacter cloacae [10] = assay: Antibacterial activity against Ent. cloacae 99+ (2646); type: functional; conditions: P99
[11] = (§2) Serum conc at 3 hours following 25 mg/kg dose; type: ADME, organism-based, Macaca mulatta; set-up: dose 25 mg/kg; conditions: rhesus monkey, read-out: Concentration_plasma
Proteus vulgaris [12] = assay: Antibacterial activity against Prot. vulgaris (2829); type: functional
Staphylococcus aureus [13] = assay: Antibacterial activity against Staphylococcus aureus GmR Meth (4310); type: functional
Staphylococcus aureus [14] = assay: Antibacterial activity against Staphylococcus aureus (2865); type: functional
Salmonella typhimurium = assay: Antibacterial activity against Sal. Typhimurium (3860); type: functional, Salmonella enterica subsp. enterica serovar Typhimurium; conditions: Salmonella enterica
Escherichia coli [15] = assay: Antibacterial activity against Escherichia coli TEM 2+ DC2 (4352); type: functional
Staphylococcus aureus [16] = assay: Antibacterial activity against Staphylococcus aureus (2868); type: functional
Enterococcus faecalis = assay: Antibacterial activity against Strep. faecalis (2864); type: functional
[17] = Solubility in water at 25 degree Centigrade; type: physicochemical; conditions: read-out: S
Pseudomonas aeruginosa [18] = assay: Antibacterial activity against Ps. aeruginosa RPL11+ (3350); type: functional
Pseudomonas aeruginosa [19] = assay: Antibacterial activity against Ps. aeruginosa (2835); type: functional
Klebsiella aerogenes [20] = assay: Antibacterial activity against Ent. aerogenes (2828); type: functional
[21] = Solubility in bicarbonate buffer (0.05 M) at 25 degree centigrade(pH 8.5); type: physicochemical; conditions: read-out: S
Klebsiella pneumoniae [22] = assay: Antibacterial activity against Klebsiella pneumoniae K1+ (4354); type: functional
Klebsiella pneumoniae [23] = assay: Antibacterial activity against Klebsiella pneumoniae (4005); type: functional
Escherichia coli [24] = assay: Antibacterial activity against Escherichia coli DC2 (4353); type: functional
Morganella morganii [25] = assay: Antibacterial activity against Prot. morganii SmR (2833); type: functional
Morganella morganii [26] = assay: Antibacterial activity against Prot. morganii SmR(2833); type: functional
Escherichia coli [27] = assay: Antibacterial activity against Escherichia coli DC2(4353); type: functional
Rhesus monkey [28] = assay: as §1; type: functional, Macaca mulatta
Enterobacter cloacae [29] = assay: Antibacterial activity against Ent. cloacae 99+(2646); type: functional; conditions: P99
[30] = Half life in a medium of rat serum.; type: ADME, organism-based
Proteus mirabilis [31] = assay: Antibacterial activity against Prot. mirabilis GmR(2830); type: functional
Escherichia coli [32] = assay: Antibacterial activity against Escherichia coli TEM 2+(4351); type: functional
Enterobacter cloacae [33] = assay: Antibacterial activity against Ent. cloacae P99-(2647); type: functional
Klebsiella pneumoniae [34] = assay: Antibacterial activity against Klebsiella pneumoniae K1+(4354); type: functional
Escherichia coli [35] = assay: Antibacterial activity against Escherichia coli TEM 2+ DC2(4352); type: functional
Pseudomonas aeruginosa [36] = assay: Antibacterial activity against Ps. aeruginoa(2835); type: functional
[37] = Half life in a medium of rat intestinal homogenate.; type: ADME
Klebsiella aerogenes [38] = assay: Antibacterial activity against Ent. aerogenes(2828); type: functional
Pseudomonas aeruginosa [39] = assay: Antibacterial activity against Ps. aeruginosa RPL11+(3350); type: functional
Rhesus monkey [40] = assay: Urine conc 0-24 hours following 25mg/kg dose; type: functional, Macaca mulatta
[41] = Half life in a medium of dog serum.; type: ADME, organism-based, Canis lupus familiaris
Proteus vulgaris [42] = assay: Antibacterial activity against Prot. vulgaris(2829); type: functional
[43] = Half life in a medium of human serum.; type: ADME, organism-based
Streptococcus sp. = assay: Antibacterial activity against Strep. Faecalis (2864); type: functional
Rhesus monkey [44] = assay: as §2; type: functional, Macaca mulatta
Pseudomonas aeruginosa [45] = assay: Antibacterial activity against Ps. aeruginoa(4279); type: functional
[46] = Half life in a medium of phosphate buffer in pH 7.4; type: ADME
Staphylococcus aureus [47] = assay: Antibacterial activity against Staphylococcus aureus GmR Meth(4310); type: functional

SMILES: CCn1cc(C(=O)O)c(=O)c2cc(F)c(N3CCNCC3)cc21 [NORFLOXACIN]
- MIC (Enterobacter cloacae [1]): 0.25 µg/mL (≈ 0.783 µM)
- S ([2]; buffer): 8 mg/mL
- solubility [3]: 200 µg/mL (≈ 626 µM)
- Dose (Monkey): 16.3%
- MIC (Proteus mirabilis [4]): 0.06 µg/mL (≈ 0.188 µM)
- MIC (Serratia marcescens): 4 µg/mL (≈ 12.5 µM)
- MIC (Pseudomonas aeruginosa [5]): 1 µg/mL (≈ 3.13 µM)
- Concentration_urine [6]: 175860 ng/mL
- MIC (Escherichia coli [7]): 0.06 µg/mL (≈ 0.188 µM)
- Concentration_urine [8]: 33780 ng/mL
- MIC (Escherichia coli [9]): 0.03 µg/mL (≈ 0.0939 µM)
- MIC (Escherichia coli [9]; Escherichia coli, read-out: MIC): 0.03 µg/mL (≈ 0.0939 µM)
- MIC (Enterobacter cloacae [10]): 1 µg/mL (≈ 3.13 µM)
- concentration at 3 h [11]: 760 ng/mL
- MIC (Proteus vulgaris [12]): 0.06 µg/mL (≈ 0.188 µM)
- MIC (Staphylococcus aureus [13]): 1 µg/mL (≈ 3.13 µM)
- MIC (Staphylococcus aureus [14]): 0.25 µg/mL (≈ 0.783 µM)
- MIC (Salmonella typhimurium): 0.5 µg/mL (≈ 1.57 µM)
- MIC (Escherichia coli [15]): 0.5 µg/mL (≈ 1.57 µM)
- MIC (Staphylococcus aureus [16]): 1 µg/mL (≈ 3.13 µM)
- MIC (Enterococcus faecalis): 8 µg/mL (≈ 25.1 µM)
- solubility [17]: 190 µg/mL (≈ 595 µM)
- MIC (Pseudomonas aeruginosa [18]): 1 µg/mL (≈ 3.13 µM)
- MIC (Pseudomonas aeruginosa [19]): 1 µg/mL (≈ 3.13 µM)
- MIC (Klebsiella aerogenes [20]): 0.5 µg/mL (≈ 1.57 µM)
- solubility [21]: 210 µg/mL (≈ 658 µM)
- MIC (Klebsiella pneumoniae [22]): 8 µg/mL (≈ 25.1 µM)
- MIC (Klebsiella pneumoniae [23]): 0.06 µg/mL (≈ 0.188 µM)
- MIC (Escherichia coli [24]): 0.5 µg/mL (≈ 1.57 µM)
- MIC (Morganella morganii [25]): 0.06 µg/mL (≈ 0.188 µM)

- solubility [2]: 5 µg/mL (≈ 11.5 µM)
- solubility [3]: 50 µg/mL (≈ 115 µM)
- MIC (Morganella morganii [26]): 8 µg/mL (≈ 18.4 µM)
- MIC (Escherichia coli [27]): > 128 µg/mL
- MIC (Enterobacter cloacae [29]): > 128 µg/mL
- MIC (Serratia marcescens): > 128 µg/mL
- MIC (Escherichia coli [7]): 128 µg/mL (≈ 294 µM)
- half-life [30]: 1.5 min
- MIC (Proteus mirabilis [31]): > 128 µg/mL
- MIC (Escherichia coli [32]): > 128 µg/mL
- MIC (Enterobacter cloacae [33]): > 128 µg/mL
- MIC (Staphylococcus aureus [14]): 2 µg/mL (≈ 4.59 µM)
- MIC (Salmonella typhimurium): > 128 µg/mL
- MIC (Klebsiella pneumoniae [34]): > 128 µg/mL
- MIC (Escherichia coli [35]): > 128 µg/mL
- MIC (Pseudomonas aeruginosa [36]): > 128 µg/mL
- MIC (Staphylococcus aureus [16]): 1 µg/mL (≈ 2.3 µM)
- half-life [37]: 2.6 min
- MIC (Klebsiella aerogenes [38]): > 128 µg/mL
- MIC (Pseudomonas aeruginosa [39]): > 128 µg/mL
- solubility [17]: 60 µg/mL (≈ 138 µM)
- half-life [41]: 6 min
- MIC (Proteus vulgaris [42]): > 128 µg/mL
- half-life [43]: 116 min
- MIC (Streptococcus sp.): > 128 µg/mL
- solubility [21]: 410 µg/mL (≈ 942 µM)
- MIC (Klebsiella pneumoniae [23]): 32 µg/mL (≈ 73.5 µM)
- MIC (Pseudomonas aeruginosa [45]): > 128 µg/mL
- half-life [46]: 128 h
- MIC (Staphylococcus aureus [47]): 2 µg/mL (≈ 4.59 µM)
SMILES: CCn1cc(C(=O)O)c(=O)c2cc(F)c(N3CCN(C(=O)OCOC(C)=O)CC3)cc21
- Dose (Monkey): 7.23%
- Concentration_urine (Rhesus monkey [28]): 25.03 µg/mL
- Concentration_urine (Rhesus monkey [40]): 21.97 µg/mL
- Concentration_plasma (Rhesus monkey [44]): 0.36 µg/mL

- solubility [2]: 30 µg/mL (≈ 66.8 µM)
- solubility [3]: 60 µg/mL (≈ 134 µM)
- half-life [30]: 1.5 min
- half-life [41]: 6 min
- solubility [21]: 150 µg/mL (≈ 334 µM)
SMILES: CCn1cc(C(=O)O)c(=O)c2cc(F)c(N3CCN(C(=O)OC(C)OC(C)=O)CC3)cc21 (centres undefined)
